Measurements reported in patent US6960559B1, “Neurite growth regulatory factors” (University of Zurich, priority 1988, dated 2005).
Where two headings read alike, the source gives them in different places. Where a SMILES comes first, the peptide text is derived from it. [ ]: non-standard residue; d: D form. The star is where a group is joined. Sta = CC(C)C[C@H](N)[C@@H](O)CC(=O)O; Isovaleryl = CC(C)CC(=O)*; Cbz = O=C(OCc1ccccc1)*

Columns and labels:
C6 cells [1] = test: C6 cell spreading on CNS myelin or PLYS with protease inhibitors; assay type: cell-based, rat; conditions: for Inhibition on CNS (%): spreading on PLYS minus spreading on CNS myelin
Protocol: Rat C6, mouse NIH 3T3 and B16 cells were cultured in Dulbecco's modified Eagle's medium (DMEM) supplemented with 10% fetal calf serum (FCS), usually to maximally 70-80% confluency. Cells were harvested with a short trypsin treatment (0.1% in Ca^2+/Mg^2+-free Hank's medium for 90 seconds) stopped by addition of FCS in excess, collected by centrifugation. Cells were resuspended in either DMEM/FCS or defined serum-free medium (MEM) and used for experiments. Dissociated rat CNS glial cells were prepared starting from optic nerves of 6-7 days old Lewis rats as described in Section 6.1.1, supra and plated into poly-D-lysine (PLYS) coated wells (100 mm^2, 100 μl medium) at a density of 20,000 cells per well. The culture medium was an enriched L15 medium with 5% rat serum, penicillin and streptomycin. C6, 3T3 and B16 cells were added to 2 day old cultures at a concentration of 30,000 cells per well, incubated for two hours and fixed with warm 4% formalin in phosphate buffer. Inhibitory oligodendrocytes were identified by double labelling using the specific antibodies O1 and O4 (see Section 6.1.3, supra).
Myelin from rat spinal cord (CNS) or sciatic nerve (PNS) purified on a discontinuous sucrose gradient as described in Section 6.1.5., was dried overnight onto PLYS coated wells (20 μg protein/well of 100 mm^2 surface). Unbound membranes were removed by three washes with Ca^2+/Mg^2+-free Hank's solution. Myelin coated wells were immediately used in substrate testing assays by the addition of 9,000 cells (C6, 3T3, or B16) per cm^2. Alternatively, we used extracted CNS myelin protein, or SDS-PAGE purified 35 and 250 kD inhibitory proteins reconstituted in liposomes (see Section 7.1.5, supra). Experiments were scored at different time points using a phase contrast microscope equipped with a photocamera. Quantifications were done using a surface integration program; three arbitrary fields were photographed for each well at a magnitude of 80×, at least 25 cells per picture were measured. Each point represents the mean of at least 3 wells±SEM. Results are expressed as μ^2 of projected cell surface, or as degree, which was calculated by subtracting from the projected surface value of a spreading cell, the surface value of a completely spheric cell.

3T3 cells = test: Treatment of CNS myelin with C6 plasma membranes, 3T3 spreading and 3H-thymidine incorporation; assay type: cell-based, mouse; conditions: 3T3 spreading on CNS myelin pretreated with C6 plasma membranes
Protocol: C6 cells grown to 80% confluency were washed twice with Hank's medium, and harvested in 20 ml 8.5% sucrose, 50 mM NaCl, 10 mM Tris buffer, pH 7.4, using a rubber policeman. After mechanical homogenization through a series of needles of decreasing size, a low purity plasma membrane fraction was obtained by centrifugation (5 minutes at 3000×g, 10 minutes at 8000×g, and then 2 hours at 100,000×g). A higher purity fraction was isolated by loading the material on a discontinuous sucrose gradient, containing 50 mM NaCl, 10 mM Tris, pH 7.4 (Quigley, 1976, J. Cell Biol. 71: 472-486). 20-40% sucrose interphase (C6 plasma membranes fraction) and 40-60% sucrose interphase (C6 mitochondrial fraction) were collected, washed in Hank's medium and resuspended in MEM.
CNS myelin coated PLYS wells were prepared as described in the previous section, but instead of being immediately tested as substrate, they were first incubated with 50 μl of C6 plasma membranes (containing 0.8 mg protein/ml MEM) at 37° for 30 minutes. Dishes were then rinsed twice with Hank's medium and immediately used as substrates for 3T3 cells. In some experiments, protease blockers were added to the membranes using 10 times concentrated solutions.

C6 cells [2] = test: C6 cell attachment and spreading on rat cerebellar frozen sections; assay type: cell-based; conditions: 1,10-phenanthroline 50-300 μM; cbz-tyr-tyr 100 μM
Protocol: Adult rat cerebellum frozen sections were prepared and dried on glass coverslips. 70,000 C6, 3T3, or B16 cells in 100 μl were added to each well containing slices previously rinsed with cold DMEM/FCS. Cultures were incubated for 2 days at 37° C. Cultures were then fixed and stained with cresyl violet. Three to four cerebellum slices were used per point per experiment, with each experiment being repeated at least 2 times.

C6 glioblastoma cells = test: cells; assay type: cell-based, rat; conditions: 2 h
Protocol: Rat C6 glioblastoma cells (Benda et al., 1968, Science 161:370-371) were cultured in Dulbecco's modified Eagle's medium (DMEM) supplemented with 10% fetal calf serum (FCS), usually to maximally 70-80% confluency (Paganetti et al., 1988, J. Cell Biol. 107:2281-2291). All cell culture media were routinely supplemented with penicillin and streptomycin. Cells were harvested by a short trypsin treatment (0.1% in Ca^2+/Mg^2+-free [CMF] PBS/EDTA solution for 90 seconds) followed by addition of DMEM/10% FCS and centrifugation (600×g, 6 min). The cell pellet was rinsed with 5 ml DMEM/10% FCS and centrifuged. For cell spreading assays, cells were resuspended at 10^6/ml in defined serum-free medium (MEMα) supplemented with 0.2 μg/ml insulin, 0.5 μg/ml transferrin and 0.12 μg/ml bovine serum albumin (BSA). Protease blockers or peptides were added directly to the cell suspension from 10×solutions 10 min before plating.
Spinal cord myelin from young adult Lewis rats was purified on a discontinuous sucrose gradient (Colman et al., 1982, J. Cell Biol. 95:598-608; Schwab and Caroni, 1988, J. Neurosci. 8:2381-2393) and stored in 100 mM sucrose, 25 mM TRIS/HCl pH 7.4 at −80° C. up to 6 months. The myelin suspension ([…]) was incubated for 30 min on poly-D-lysine-coated wells (PLYS-wells). Unbound myelin membranes were removed by rinsing twice with CMF-Hank's and once with MEMα. Myelin-coated wells were used immediately for the spreading assay by adding 9'000 C6 cells per cm^2. Experiments were scored as described (Paganetti et al., 1988, J. Cell Biol. 107:2281-2291).

[3] = test system: C6 plasma membrane associated metalloendoprotease; test: Enzyme assay: cbz-FAF[125I]Y-NH2 degradation by C6 plasma membranes with protease blockers; assay type: biochemical, rat
Protocol: For most experiments, 70-80% confluent cell layers (1 cm^2 wells, 100 μl MEMα) or 2-5 μg C6 plasma membrane (100 μl MEMα) were used. […] If indicated, cell layers or plasma membrane suspensions were preincubated for 30 min with protease blockers or peptides. NEM or iodacetamide incubations of plasma membranes were performed at pH 8.5. The incubation was stopped by loading a 10 μl aliquot of the incubation medium on a thin layer chromatography plate (10 cm height, Kieselgel 60 F254, MERCK, Germany) and air dried. […] Plates were then air dried and exposed on Kodak X-OMAT films (NY, USA) with an intensifying screen. To identify the degradation products on thin-layer chromatography, we run reference peptides under the same conditions.
For the quantification of the activity, the reaction was stopped by addition of an equal volume of chloroform. […] Activity is expressed as % radioactivity contained in the aqueous phase. 100% is the sum of the radioactivity of both phases.

C6 cells [4] = test: C6 cell infiltration into optic nerve explants; assay type: cell-based, rat; conditions: nerves injected with 3 mM peptide, 0.5 mM in medium; 14 days
Protocol: Optic nerve and sciatic nerve explants were prepared as described (Schwab and Thoenen, 1985, J. Neurosci. 5:2415-2423). Briefly, the nerves were rapidly dissected from about 8 week old male rats, cleaned from the meninges, 3 times frozen and thawed using liquid nitrogen, and placed under a teflon ring (diameter 13 mm, thickness 1 mm) sealed to a culture dish with silicon grease. Two chambers connected only by the explants were in this way obtained. 300,000 C6, 3T3 or B16 cells were plated in the inner chamber in DMEM/FCS and incubated for 5 to 20 days. The medium was changed every other day. Cultures were fixed overnight with 4% formalin. The nerve explants were mounted with Tissue-Tek, 10 to 15 μm sections were cut in a cryostate and collected on gelatine coated cover slips. After drying at room temperature overnight, the sections were stained in 0.75% cresyl violet, and evaluated. The infiltrated cells were counted for each 0.1 mm of the explants, starting from the tip where cells were added. Due to the 15 day incubation, the explants were often different in diameter. Therefore, only the central part of the nerves (0.25 mm) were considered, since only this part of the explants presented a good histological quality. Inhibition experiments were performed with nerve explants previously injected from both sides with 2 μl of 3 mM cbz-tyr-tyr or cbz-ala-phe solutions.

[5] = C6 cells, 1,10-phenanthroline 0.3 mM, antibody as labelled or none, 150 minutes

Row | SMILES | Inhibition on CNS (%) (C6 cells [1]; C6 cells) | Effect on neutralization of CNS myelin inhibitory activity by C6 plasma membranes, in words (3T3 cells) | C6 cells on white matter of cerebellar frozen sections, in words (C6 cells [2]) | Effect on cbz-FAF[^125I]Y-NH2 degradation by C6 plasma membranes, in words [3] | other results
1 | c1cnc2c(c1)ccc1cccnc12 [1,10-phenanthroline] | 67 | completely blocked the C6 plasma membrane effect | dramatically changed the distribution and behavior of C6 cells on the white matter areas | completely blocked the degradation | Effect on C6 cell spreading on control substrates (PLYS, glass, PNS myelin), in words (C6 cells [1]; 1,10-phenanthroline up to 0.5 mM): did not impair C6 cell spreading; Concentration exerting a general toxic effect on all substrates (C6 cells [1]; C6 cells, 3 hours): above 0.5 mM; % inhibition on CNS lipos. (C6 cells [1]; C6 cells, 1,10-phenanthroline 0.3 mM, antibody as labelled or none): 46%; Spreading value on CNS lipos. (C6 cells [1]; [5]): 1.35 μm^2 10^3; Spreading value on PLYS (C6 cells [1]; [5]): 2.49 μm^2 10^3; IC50 (C6 cells [1]; Rattus norvegicus, C6, Section 9, read-out: Half maximal inhibition (IC50) of C6 spreading on CNS myelin): 200 µM; Maximal inhibition of C6 cell spreading on CNS myelin (C6 cells [1]; after 2 hours in culture): up to 67%; IC50 (C6 glioblastoma cells; Rattus norvegicus, C6 cell spreading on CNS myelin, read-out: IC50 on CNS myelin): 200 µM; IC50 (C6 glioblastoma cells; Rattus norvegicus, C6 cell spreading on PLYS, read-out: IC50 PLYS): 600 µM; IC50 [3]: 200 µM; Effect on cbz-FAF[^125I]Y-NH2 degradation by C6 plasma membranes, in words ([3]; listed as o-phenanthroline): blocked completely either activities
2 | NC(=O)[C@H](Cc1ccccc1)NC(=O)CNC(=O)OCc1ccccc1 [cbz-gly-phe-NH2, carbobenzoxy-glycine-phenylalanine-amide] (Cbz-Gly-Phe-NH2) | 55 | completely blocked the C6 plasma membrane effect |  |  | 
3 | O=C(N[C@@H](Cc1ccc(O)cc1)C(=O)N[C@@H](Cc1ccc(O)cc1)C(=O)O)OCc1ccccc1 [cbz-tyr-tyr, carbobenzoxy-tyrosine-tyrosine] (Cbz-Tyr-Tyr-OH) | 45 |  | dramatically changed the distribution and behavior of C6 cells on the white matter areas |  | Maximal inhibition of C6 cell spreading on CNS myelin (C6 cells [1]; 2 h): up to 67%; C6 cell infiltration into optic nerve explants, in words (C6 cells [4]): inhibited C6 cell infiltration in all the 8 nerves examined; IC50 (C6 glioblastoma cells): 300 µM
4 | CC(=O)N[C@@H](CC(C)C)C(=O)N[C@@H](CC(C)C)C(=O)N[C@H](C=O)CCCNC(=N)N [leupeptine] | 8 | did not inhibit this effect |  | had no effect | 
5 | CC(C)CC(=O)N[C@H](C(=O)N[C@H](C(=O)N[C@@H](CC(C)C)[C@@H](O)CC(=O)N[C@@H](C)C(=O)N[C@@H](CC(C)C)[C@@H](O)CC(=O)O)C(C)C)C(C)C [pepstatine] (Isovaleryl-VV[Sta]A[Sta]-OH) | 3 | did not inhibit this effect |  | had no effect | 
